Data set [1] deals with MCF-7 breast cancer cells. The data set is described as follows: Test G: activity against MCF-7 breast cancer cells. In kind it is cell-based. Here is the method: (§1) The activity of representative compounds of formula VII against MCF-7 breast cancer cells and CEM T-cell leukemia cells were determined using a procedure similar to that described by C. R. Wagner, et al. Cancer Research, 1997, 57, 2341-2345.

Data set [2] relates to CEM T-cell leukemia cells. The data set is described as follows: Test G: activity against CEM T-cell leukemia cells. It counts as cell-based. As for the experimental part:
as §1

The test system of a further data set is PBMCs. The following applies: human. As for the experimental part: (§2) The antiviral activity of representative compounds of the invention was determined with matched HIV-1 isolates and a laboratory HIV-1 strain as previously described (D. L. Mayers et al., Proc. Natl. Acad. Sci., USA 1995, 92, 215-219; and C. R. Wagner et al., Bioorganic and Medicinal Chemistry Letters, 1995, 5, 1819-1824).

A further data set deals with HIV-1. Briefly: Test A: antiviral activity against HIV-1 isolates and laboratory strain in peripheral blood lymphocytes. In kind it is cell-based. The following applies: Human immunodeficiency virus 1, Lymphocyte, read-out: Mean IC50 in PBLs. Here is the method: as §2
A short description of data set [3]: Test F: stability in human plasma. It counts as in vitro ADME. The following applies: 37 C.
Another data set can be described thus: in vitro. Particulars: cell media.

Where two headings read alike, the source gives them in different places. A value given as a limit tells only on which side of the number the result lay.

As usually defined, the CC50 is the concentration giving 50% cytotoxicity. A high value points to lower toxicity to the cells. For `COC(=O)[C@H](Cc1c[nH]c2ccccc12)NP(=O)(O)OC[C@H]1O[C@@H](n2cc(F)c(=O)[nH]c2=O)C[C@@H]1O` [Compound 37, 5-fluoro-2′deoxy-5′-uridyl N-((L)-1-carbomethoxy-2-indol-3-ylethyl)phosphoramidate], the “Half-life Cell Media 37 C” value was more than 48 h. In data set [1], this molecule returned a CC50 of 25 nM. The molecule further displayed a CC50 in data set [2] of 320 nM.
As a reminder, the IC50 is the midpoint of a concentration-inhibition curve. As for `Nc1nccc2c1ncn2[C@@H]1O[C@H](CO)[C@@H](O)[C@H]1O` [DZA, 3-deaza adenosine, reference compound], in the data set on PBMCs, the CC80 was found to be 1000 nM. Moreover, the IC50 in the data set on HIV-1 (HIV-1 isolate A012 post-AZT) was 165 nM; with HIV-1 (HIV-1 isolate A012 pre-AZT), 144 nM.
The half-life is the time needed for the level to fall by half in the phase considered. A low value points to rapid decline. Regarding `O=c1[nH]c(=O)n([C@H]2C[C@H](O)[C@@H](CO)O2)cc1F` [FUdR, 5-fluorodeoxyuridine, reference compound], the CC50 in data set [1] (Homo sapiens, MCF7) turned out to be 11000 nM; in data set [2] (T-cell), 1 nM. In addition, the half-life in data set [3] was 0.0833 to 0.167 h; in “in vitro” it was more than 48 h.

Source of the values: patent publication US6475985B1, “Nucleosides with antiviral and anticancer activity” (priority 1998, dated 2002).
